The data set in a line: Clinical bioavailability study: renal excretion of flavones over 24 h after oral rutin. It counts as in vivo, gesunden Probanden. The note with it: Rutin molecularly dispersed in gelatin, taken by volunteers. The source says:
Die nahrungsbedingte Flavonausscheidung wurde dabei berücksichtigt und durch entsprechende Diätvorschriften möglichst gering gehalten.
Die Analytik und Identifikation der Flavonausscheidungen kann z.B. wie folgt durchgeführt werden: • 1. Saure Spaltung ( 1 M Salzsäure) der in biologischen Flüssigkeiten (Urin) enthaltenen Flavonkonjugate. • 2. Festphasenextraktion mit Methanol zur Anreicherung der freigesetzten Flavone (z.B. Extrelut^R, Fa. Merck). • 3. HPLC-Analytik mit Diodenarray-Detektion und Identifizierung einzelner Flavone, zusätzlich elektrochemische Identifikation (anodisches Oxidationspotential).
Die Empfindlichkeit der genannten Analytik ist >10 ng Flavon pro ml.

On to `C[C@@H]1O[C@@H](OC[C@H]2O[C@@H](Oc3c(-c4ccc(O)c(O)c4)oc4cc(O)cc(O)c4c3=O)[C@H](O)[C@@H](O)[C@@H]2O)[C@H](O)[C@H](O)[C@H]1O` [Rutin], for which the Metaboliten in vivo result is reported as “Quercetin, Kämpferol und Isorhamnetin”.
